Laboratory results: patent US20040116535A1, “Use” (priority 2001, published 2004)
Entries after “also recorded” stand apart in the source; their conditions may differ. Where two headings read alike, the source gives them in different places.

Legend:
[1] = system: allodynia; assay: Different allodynia model, i.v. injected mex enantiomers (Nordmark and Schött, unpublished observations); type: in vivo; conditions: 25 mg/kg i.v.
[2] = system: GABA; conditions: cited from earlier work
[3] = system: tinnitus
[4] = cited from earlier work
[5] = system: tinnitus; conditions: 32 patients; 200 mg 3 times daily for 30 days; cited from earlier work
[6] = system: tinnitus; conditions: 300 mg mex per day orally for one or two weeks; cited from earlier work
[7] = system: tinnitus; conditions: difference to placebo (30%) not significant; cited from earlier work
[8] = system: inferior colliculus; conditions: activity believed to be representative of tinnitus; cited from earlier work
[9] = system: tinnitus; conditions: tocainide infusion; placebo infusion 5%; cited from earlier work
[10] = system: allodynia from rat nerve root ligation; conditions: cited from earlier work
[11] = system: tinnitus; conditions: no statistically significant difference to placebo (35%); cited from earlier work

Cc1cccc(C)c1OC[C@H](C)N [(S+)-mex]
side effects [1]: so severe that pain measurements were not possible

1-(2,6-dimethylphenoxy)-propanamine [mexiletine]
effect on GABA [2]: stimulating effect
tinnitus intensity reduction (VAS) ([3]; Case 1, 500 mg mexiletine infused over 120 min, after 118 min): 95%
time after which tinnitus returned to normal ([3]; Case 2, 500 mg mexiletine): 1 h
level to which tinnitus was reduced ([3]; Case 2, 500 mg mexiletine, shortly before the infusion stopped): 60%
time after which tinnitus returned to base level ([3]; Case 2, 550 mg mexiletine over 90 min): 100 min
tinnitus (VAS) ([3]; Case 2, 550 mg mexiletine over 90 min, after 60 min): completely vanished
increase in tinnitus intensity ([3]; Case 2, 550 mg mexiletine over 90 min, after 214 min): about 40%
reduction in tinnitus intensity ([3]; Case 3, mexiletine): small reductions; also recorded: moderate
side effects ([3]; human, in vivo): no side effects
difference between peak and trough ([4]; after administration every 8 hours): more than 30%
half-life ([4]; human, in vivo): about 8 hours
effect on tinnitus compared with placebo [5]: not superior to placebo
patients showing no effect [6]: 65%
subjects showing an effect above 50% [6]: 14.6%

CNCCC=C1c2ccccc2CCc2ccccc21 [nortriptyline]
reduction of tinnitus sensation [7]: 43%

CCN(CC)CC(=O)Nc1c(C)cccc1C [lidocaine]
effect on GABA [2]: stimulating effect
side effects ([3]; Case 1, 100 mg lidocaine i.v.): no side effects
tinnitus intensity reduction (VAS) ([3]; Case 1, 100 mg lidocaine i.v. over 5 min, 70 min after the start): 96%
time after which tinnitus returned to the initial level ([3]; Case 2, lidocaine i.v.): about 2 min
tinnitus (VAS) ([3]; Case 2, lidocaine i.v., 30 s after injection): no tinnitus
tinnitus increase above the base level ([3]; Case 2, lidocaine i.v., at 30 min): 46%
tinnitus (VAS) ([3]; Case 2, lidocaine i.v., less than one min after the start of the injection): vanished completely
reduction in tinnitus intensity ([3]; Case 3, lidocaine): small reductions; also recorded: moderate
side effects ([3]; Case 3, lidocaine): no side effects
increased spontaneous activity in the inferior colliculus [8]: abolished

Cc1cccc(C)c1NC(=O)C(C)N (stereo not drawn) [tocainide]
effect on GABA [2]: stimulating effect
reduction in tinnitus intensity [9]: 50%

Cc1cccc(C)c1OC[C@@H](C)N [(R−)-mex]
pain relief (allodynia) compared between the mex enantiomers [10]: considerably greater

NC(=O)N1c2ccccc2C=Cc2ccccc21 [carbamazepine]
positive results for the drug [11]: 45%
